In paper doi:10.1101/2025.04.10.648262, “Time-resolved phenotyping at subcellular resolution reveals shared principles and key trade-offs across antimicrobial peptide activities” (bioRxiv, 2026):
Read-outs that look alike come from different tables or passages of the source. Bridge positions count the residues as written; N and C are the ends. Square brackets hold non-standard residues; d marks the D form. Peptide text beside a SMILES is read from it. Nspe = C[C@H](NCC(=O)O)c1ccccc1; Nlys = NCCCCNCC(=O)O

What was measured:
[1] = test system: E. coli (MG1655); format: cell-based, Escherichia coli
Procedure: For all experiments and E. coli strains, cells were grown in a medium (M9gluCAAT) with M9 salts (33.7 mM Na2HPO4, 22mM KH2PO4, 8.55 mM NaCl, 9.35 mM NH4Cl), 0.2% (w/v) glucose, 0.4% (w/v) casamino acids, 1 mM MgSO4, 0.3 mM CaCl2, 1 μg/mL thiamine, and trace elements (13.4 mM ethylene-diamine-tetra-acetic-acid (EDTA), 3.1 mM FeCl3-6H2O, 0.62 mM ZnCl2, 76 μM CuCl2-2H2O, 42 μM CoCl2-2H2O, 162 μM H3BO3, 8.1 μM MnCl2-4H2O). Prior to every experiment, cells were first inoculated into M9gluCAAT and grown to stationary phase at 37°C. For all assays except the biofilm experiments, the culture was diluted to 1/10,000 or more in fresh medium and grown at 37°C until it reached an optical density at 600 nm (OD) of 0.2–0.4. For the biofilm experiments, cells were grown in M9gluCAAT supplemented with 100 μg/mL ampicillin to maintain the GFP-expressing plasmid. The overnight stationary-phase cultures were then diluted into the same medium to an OD of 0.015. See below for details on biofilm growth.
Except for the biofilm experiments, the strains used in this study were derived from MG1655 (ATCC 47076), which was used to estimate the minimum inhibitory concentration (MIC) for all the studied peptides (or peptoids) using a microplate reader (Figure 1A). To detect the timing of outer and inner membrane permeabilization to proteins, strain CJW7845 was constructed to carry two freely diffusing fluorescent proteins: mScarlet-I in the periplasm and mTagBFP2 in the cytoplasm. Construction of CJW7845 was done by transforming pBAD-mTagBFP2 plasmid (Addgene #34632, a gift from Vladislav Verkhusha; ([Subach et al., 2011])) into an E. coli strain expressing a periplasmic mScarlet-I reporter ([Cañas-Duarte 2021]), as previously described ([Chung et al., 1989]). Transformants were restreaked on fresh selection plates and confirmed via microscopy.
(§1) To determine the minimal inhibitory concentration (MIC) of the selected AMPs against either MG1655 or ATCC 25922 E. coli strains, exponentially growing cells were diluted in fresh medium to an OD = 10^−6 (~500 cells/mL) and mixed 50:50 with titrated AMP concentrations (which were chosen to be over a range that included the MIC) in a 96-well plate (flat bottom with low evaporation lid, 3595, Corning, Arizona, USA). A final OD of 5 × 10^−7 corresponds to ~250 cells/mL. OD curves were sampled every 5 min for a total of 48 h using a microplate reader (BioTek Synergy 2, Agilent Technologies Inc., California, USA). Raw data were exported as a text file and analysed using a custom-written Python script (microplate_reader_analysis.py). To measure maximum growth rates, the log(OD) was fitted using a linear regression over a 12-point moving window (60 min), which provides the instantaneous growth rate (log(OD)/h), from which the global maximum was computed. The MIC was defined as the minimum AMP concentration for which the maximum growth rate was < 0.2 log(OD)/h within the first 20 h of incubation. Each MIC experiment was performed independently at least three times (with at least two technical replicates each), and the mode across all replicates was taken as the final MIC; in the rare cases of a tie, an additional replicate was performed, which was sufficient to resolve it.

[2] = test system: E. coli ATCC 25922; format: cell-based, Escherichia coli; settings: E. coli ATCC 25922, M9gluCAAT, 37°C, 20 h; mode across four biological replicates
Procedure: Strain ATCC 25922GFP (ATCC, Virginia, USA), which carries a GFP-expressing plasmid, was selected for biofilm experiments. The strain’s ability to form biofilms was first verified at 37°C using Congo Red staining on agar plate containing M9gluCAAT. Congo Red dye binds curli, a major component of the biofilm extracellular matrix. Strain ATCC 25922 (lacking the GFP-expressing plasmid) was used for MIC determination (to avoid interference from the presence of ampicillin required to maintain the plasmid) following the standard growth protocol described above.
as §1

C[C@@H](c1ccccc1)N(CC(N)=O)C(=O)CN(C(=O)CN(CCCCN)C(=O)CN(C(=O)CN(C(=O)CN(CCCCN)C(=O)CN(C(=O)CN(C(=O)CN(CCCCN)C(=O)CN(C(=O)CN(C(=O)CNCCCCN)[C@@H](C)c1ccccc1)[C@@H](C)c1ccccc1)[C@@H](C)c1ccccc1)[C@@H](C)c1ccccc1)[C@@H](C)c1ccccc1)[C@@H](C)c1ccccc1)[C@@H](C)c1ccccc1 [TM1] (H-[Nlys][Nspe][Nspe][Nlys][Nspe][Nspe][Nlys][Nspe][Nspe][Nlys][Nspe][Nspe]-NH2)
MIC (mode MIC) ([1]; E. coli MG1655, M9gluCAAT, 37°C, 20 h, inoculum ~250 cells/mL, max growth rate < 0.2 log(OD)/h, mode across three biological replicates with two technical replicates each): 2.5 µM

CC[C@@H](C)[C@@H](NC(=O)[C@@H](C)NC(=O)[C@@H](CCCNC(=N)N)NC(=O)[C@@H](Cc1c[nH]c2ccccc12)NC(=O)[C@@H](CCC(N)=O)NC(=O)[C@H](N)C(C)C)C(=O)N[C@H](CCCNC(=N)N)C(=O)N[C@@H](C(=O)N[C@H](CCCNC(=N)N)C(=O)N[C@@H](C(=O)N[C@@H](C(=O)N[C@H](CCCNC(=N)N)C(N)=O)[C@H](C)CC)C(C)C)C(C)C [DJK-5] (H-[dV][dQ][dW][dR][dA][dI][dR][dV][dR][dV][dI][dR]-NH2; N-terminus and C-terminus assumed)
MIC (mode MIC) ([1]; MG1655, 20 h): 2.5 µM

CC[C@H](C)[C@@H]1NC(=O)CNC(=O)[C@H](CCCNC(=N)N)NC(=O)[C@H](Cc2ccc(O)cc2)NC(=O)[C@@H]2CSSC[C@H](NC1=O)C(=O)N[C@@H](Cc1ccc(O)cc1)C(=O)N[C@@H](CCCNC(=N)N)C(=O)N[C@@H](CCCNC(=N)N)C(=O)N[C@H](C(=O)N[C@@H](CCCNC(=N)N)C(N)=O)CSSC[C@H](NC(=O)[C@H](Cc1c[nH]c3ccccc13)NC(=O)[C@@H](N)CCCCN)C(=O)N[C@@H](Cc1ccccc1)C(=O)N[C@@H](CCCNC(=N)N)C(=O)N[C@@H](C(C)C)C(=O)N2 [Tac1, tachyplesin-1] (H-KWCFRVCYRGICYRRCR-NH2; disulfide 3-16, 7-12 (inferred); N-terminus assumed)
MIC (mode MIC) ([1]; MG1655, 20 h): 0.6 µM
MIC (mode MIC) [2]: 1.2 µM
